The test system of assay [1] is Non-small lung cancer ABC-1 cells. The experiment in a line: Cellular proliferation assay (CellTiter-Glo). The assay is classed as cell-based. Conditions: Homo sapiens, 72 h; ABC-1 cells, 3 days of compound treatment; read-out: ABC-1 IC50.
Method: Cellular Proliferation Assay to Determine Compound Inhibition of Cancer Cell Growth
Viable cells were measured after 3 days of compound treatment using the CellTiter-Glo assay (Promega, G7570). Assay was performed following the manufacture protocol.
Assay [2] concerns the target human tankyrase 1 PARP catalytic domain, TNKS1P (Homo sapiens (Human), UniProt O95271). The experiment in a line: TNKS1 autoparsylation assay (LC/MS detection of nicotinamide). As to conditions: read-out: TNKS1 AP IC50, 20 nM enzyme, 250 μM β-NAD+, 60 min.
Assay [3] concerns Axin2 protein in SW480 cells. Briefly: Cellular ELISA assay of Axin2 protein stabilization. The assay is classed as cell-based. Conditions: Homo sapiens, 24 hrs, read-out: Axin AC50. The protocol: Cellular ELISA Assay to Determine Compound Effect on Stabilizing the Axin2 Protein Compound activity in stabilizing the Axin2 protein was measured by Sandwich Enzyme-Linked Immuosorbent (ELISA) assay in the colorectal cell line SW480. 30,000 SW480 cells were seeded per well in 96-well plate and incubated overnight prior to compound treatment. […] Cells were then washed with 100 μL of cold Phosphate Buffer Saline (PBS), and lysed in 125 μl of cold 1× lysis buffer (Cell Signaling Technology, 9803) supplemented with Protease inhibitor (Roche, 11836170) and Phosphatase inhibitors (Sigma, P2850, P5726). For the ELISA assay, anti Axin-2 capture antibody (Strategic Diagnostics) antibody was diluted to a concentration of 1 μg/ml (1:1000) in Carbonate Coating buffer, pH 9.2 (Sigma, C3041-50CAP). […], of the diluted anti Axin-2 capture antibody per well was then used to coat the 96-well ELISA plate (Thermo Electron Corp., MicroLite 1 flat bottom plate #7571) overnight at 4° C. […] After blocking, plates were then washed three times with 300 μl/well of wash solution. 100 μL of prepared SW480 cell lysate was then added to each well and incubated at room temperature for 2 hours while shaking gently. After washing, 100 μL of Biotinylated anti-Axin2 antibody (CST, 2151) was added to each well and incubated room temperature for 2 hours. 100 μL of Streptavidin-HRP (R&D systems, DY998) diluted 1:200 in 1% BSA/PBS was then added in each well and incubate for 30 mins at R/T in the dark.

The target of assay [4] is tankyrase 2 protein PARP domain, TNKS2P (Homo sapiens (Human), UniProt Q9H2K2). Briefly: TNKS2 autoparsylation assay (LC/MS detection of nicotinamide). Conditions: read-out: TNKS2 AP IC50, 20 nM enzyme, 250 μM β-NAD+, 60 min.
Method: Biochemical Assay to Determine Compound Inhibition of TNKS Enzyme Activity
The autoparsylation activity of the TNKS 1/2 or PARP1/2 enzymes was measured by the liquid chromatography-mass spectrometry (LC/MS) detection of nicotinamide as readout. Compound activity in inhibiting the TNKS and PARP autoparsylation was evaluated by IC50 measurements. […] For the background control wells, 10 μL of the 5× quenching solution per well was added prior to the addition of β-NAD^+. The % Inhibition was calculated as: (Control−Sample)/(Control−Background)*100.
The subject of assay [5] is Wnt ligand-induced signaling in HEK293 cells. Briefly: Wnt-responsive Super-TOpFlash (STF) luciferase reporter gene assay. The assay is classed as cell-based. Conditions: Homo sapiens, Wnt3A condition medium. The method, then:
Cellular Reporter Gene Assay to Determine Compound Inhibition of Wnt Signaling Activity
Compound activity in inhibiting Wnt ligand-induced signaling was measured using a Wnt-responsive Super-TOpFlash (STF) luciferase reporter gene assay in HEK293 cells. On day 1 of the assay, cells were plated at a density of 8000 cells per well of 384-well plate in 25 μl medium containing 5% fetal bovine serum (FBS). On the second day, […] condition medium (CM) produced from mouse L cells was added to the cells to induce Wnt signaling, followed by addition of 5 μL of compounds each well in 10-point serial dilution. On the third day, the luciferase activity was measured by the Bright-Glo™ Luciferase Assay System following manufacture's protocol (Promega, E2620). The Inhibition was calculated as: (Maximum Wnt-induced signaling−Sample)/(Maximum Wnt-induced signaling−Background)*100. “Maximum Wnt-induced signaling” is the STF signal level induced by 20% Wnt3A CM without compound; and “Background” is the STF signal level without the addition of Wnt3A CM or compound.
(In a reporter assay the amount or activity of a reporter protein is the signal.)

Sequence of human tankyrase 1 PARP catalytic domain, TNKS1P (O95271 1112-1317): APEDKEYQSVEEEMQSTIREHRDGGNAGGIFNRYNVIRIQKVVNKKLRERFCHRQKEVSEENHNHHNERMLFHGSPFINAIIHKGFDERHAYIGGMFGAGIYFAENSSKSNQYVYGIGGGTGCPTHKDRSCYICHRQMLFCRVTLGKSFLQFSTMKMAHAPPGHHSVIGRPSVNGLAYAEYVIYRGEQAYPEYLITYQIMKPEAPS
Sequence of tankyrase 2 protein PARP domain, TNKS2P (Q9H2K2 959-1164): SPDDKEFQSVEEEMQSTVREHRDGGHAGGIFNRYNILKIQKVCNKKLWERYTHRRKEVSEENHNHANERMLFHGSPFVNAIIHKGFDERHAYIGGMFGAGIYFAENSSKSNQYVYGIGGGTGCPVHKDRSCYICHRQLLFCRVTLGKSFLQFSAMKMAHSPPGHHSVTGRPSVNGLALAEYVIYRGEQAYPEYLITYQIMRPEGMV

The term IC50 denotes the point on the concentration scale where inhibition reaches its midpoint. For orientation: AC50 means the concentration giving half of the maximal activity seen. For the compound `O=C(CN1CCC(C(=O)c2ccc(F)cc2)CC1)NCc1nc2c(c(=O)[nH]1)COCC2` [Example 1, 2-(4-(4-Fluorobenzoyl)piperidin-1-yl)-N-((4-oxo-4,5,7,8-tetrahydro-3H-pyrano[4,3-d]pyrimidin-2-yl)methyl)acetamide], the IC50 was found to be 1050 ± 390 nM in assay [1] and 64 ± 8 nM in assay [2]. Besides, the AC50 in assay [3] is 880 ± 210 nM.

For the compound `COc1ccc(C(=O)C2CCN(CC(=O)N(Cc3nc4c(c(=O)[nH]3)COCC4)CC3CC3)CC2)cc1` [Example 5, N-Cyclopropylmethyl-2-[4-(4-methoxy-benzoyl)-piperidin-1-yl]-N-(4-oxo-3,5,7,8-tetrahydro-4H-pyrano[4,3-d]pyrimidin-2-ylmethyl)-acetamide], the IC50 in assay [1] was found to be 32 ± 4 nM; in assay [2], 15.5 ± 3.5 nM. In assay [3], the AC50 came to 60 ± 60 nM.

Turning to `O=C(c1ccc(F)cc1)C1CCN(CC(=O)N(Cc2nc3c(c(=O)[nH]2)COCC3)Cc2cccs2)CC1` [Example 13, 2-(4-(4-Fluorobenzoyl)piperidin-1-yl)-N-((4-oxo-4,5,7,8-tetrahydro-3H-pyrano[4,3-d]pyrimidin-2-yl)methyl)-N-(thiophen-2-ylmethyl)acetamide], the IC50 in assay [1] worked out at 40 nM; in assay [2], 15.4 ± 2.3 nM. In assay [3], the AC50 worked out at 26 ± 8 nM.

As for `O=C(c1ccc(F)cc1)C1CCN(CC(=O)N(Cc2ccncc2)Cc2nc3c(c(=O)[nH]2)COCC3)CC1` [Example 20, 2-(4-(4-Fluorobenzoyl)piperidin-1-yl)-N-((4-oxo-4,5,7,8-tetrahydro-3H-pyrano[4,3-d]pyrimidin-2-yl)methyl)-N-(pyridin-4-ylmethyl)acetamide], the IC50 in assay [2] worked out at 845 ± 12 nM; in assay [4], 206 ± 2 nM; in assay [5] it was 2390 ± 250 nM.

`O=C(c1ccc(F)cc1)C1CCN(CC(=O)N(Cc2cccnc2)Cc2nc3c(c(=O)[nH]2)COCC3)CC1` [Example 21, 2-(4-(4-Fluorobenzoyl)piperidin-1-yl)-N-((4-oxo-4,5,7,8-tetrahydro-3H-pyrano[4,3-d]pyrimidin-2-yl)methyl)-N-(pyridin-3-ylmethyl)acetamide]: the IC50 in assay [2] was 214 ± 2 nM; in assay [4] it was 42 ± 1 nM; in assay [5] it was 460 ± 280 nM.

As for `CN(Cc1nc2c(c(=O)[nH]1)COCC2)C(=O)CN1CCC(C(=O)c2ccc(F)cc2)CC1` [Example 30], in assay [2], the IC50 was determined as 241 ± 30 nM. Besides, the AC50 in assay [3] worked out at 6000 ± 500 nM.

As for `CCCN(Cc1nc2c(c(=O)[nH]1)COCC2)C(=O)CN1CCC(C(=O)c2ccc(F)cc2)CC1` [Example 34, 2-(4-(4-Fluorobenzoyl)piperidin-1-yl)-N-((4-oxo-4,5,7,8-tetrahydro-3H-pyrano[4,3-d]pyrimidin-2-yl)methyl)-N-propylacetamide], in assay [2], the IC50 came to 46 ± 1 nM. For the same compound, in assay [3], the AC50 stood at 1010 ± 70 nM.

Consider `C[C@@H](c1ccc(F)cc1)N(Cc1nc2c(c(=O)[nH]1)COCC2)C(=O)CN1CCC(C(=O)c2ccc(F)cc2)CC1` [Example 35, (S)-2-(4-(4-Fluorobenzoyl)piperidin-1-yl)-N-(1-(4-fluorophenyl)ethyl)-N-((4-oxo-4,5,7,8-tetrahydro-3H-pyrano[4,3-d]pyrimidin-2-yl)methyl)acetamide], for which the figures for the IC50 in assay [2], in assay [4] and in assay [5] were 256 ± 4 nM, 68 ± 1 nM and 179 ± 20 nM, respectively.

For `O=C(c1ccc(F)cc1)C1CCN(CC(=O)N(Cc2nc3c(c(=O)[nH]2)COCC3)Cc2ccc(S(=O)(=O)N3CCOCC3)s2)CC1` [Example 47, 2-[4-(4-Fluoro-benzoyl)-piperidin-1-yl]-N-[5-(morpholine-4-sulfonyl)-thiophen-2-ylmethyl]-N-(4-oxo-3,5,7,8-tetrahydro-4H-pyrano[4,3-d]pyrimidin-2-ylmethyl)-acetamide], the figures for the IC50 in assay [2], in assay [4] and in assay [5] were 561 ± 49 nM, 66 ± 2 nM and 1830 ± 390 nM, respectively. Further, in assay [3], the AC50 was 5000 ± 2300 nM.

For `COc1ccc(-c2nnc(C3CCN(CC(=O)NCc4nc5c(c(=O)[nH]4)COCC5)CC3)o2)cc1` [Example 56, 2-{4-[5-(4-Methoxy-phenyl)-[1,3,4]oxadiazol-2-yl]-piperidin-1-yl}-N-(4-oxo-3,5,7,8-tetrahydro-4H-pyrano[4,3-d]pyrimidin-2-ylmethyl)-acetamide], the IC50 in assay [1] was found to be 641 nM; in assay [2] it was 548 ± 39 nM; in assay [4], 89 ± 3 nM; in assay [5], 207 ± 21 nM.

For the compound `O=C(CN1CCC(c2n[nH]c3cc(F)ccc23)CC1)NCc1nc2c(c(=O)[nH]1)COCC2` [Example 57, 2-[4-(6-Fluoro-1H-indazol-3-yl)-piperidin-1-yl]-N-(4-oxo-3,5,7,8-tetrahydro-4H-pyrano[4,3-d]pyrimidin-2-ylmethyl)acetamide], the IC50 is 649 nM in assay [1], 1210 ± 100 nM in assay [2], 270 ± 10 nM in assay [4] and 207 ± 35 nM in assay [5].

In the case of `COc1ccc2c(C3CCN(CC(=O)NCc4nc5c(c(=O)[nH]4)COCC5)CC3)n[nH]c2c1` [Example 58, 2-[4-(6-Methoxy-1H-indazol-3-yl)-piperidin-1-yl]-N-(4-oxo-3,5,7,8-tetrahydro-4H-pyrano[4,3-c]pyrimidin-2-ylmethyl)-acetamide], the IC50 in assay [1] is more than 10000 nM; in assay [2], 1490 ± 50 nM; in assay [4], 311 ± 39 nM; in assay [5], 4500 ± 400 nM.

For `O=C(CN1CCC(n2cc(-c3ccccc3)cn2)CC1)NCc1nc2c(c(=O)[nH]1)COCC2` [Example 59, N-(4-Oxo-3,5,7,8-tetrahydro-4H-pyrano[4,3-d]pyrimidin-2-ylmethyl)-2-[4-(4-phenyl-pyrazol-1-yl)-piperidin-1-yl]-acetamide], the IC50 stood at 8170 nM in assay [1], 2250 ± 23 nM in assay [2], 188 ± 16 nM in assay [4] and 3940 ± 120 nM in assay [5].

As for `COc1ccc(-c2cnn(C3CCN(CC(=O)NCc4nc5c(c(=O)[nH]4)COCC5)CC3)c2)cc1` [Example 60, 2-{4-[4-(4-Methoxy-phenyl)-pyrazol-1-yl]-piperidin-1-yl}-N-(4-oxo-3,5,7,8-tetrahydro-4H-pyrano[4,3-d]pyrimidin-2-ylmethyl)-acetamide], the IC50 in assay [1] came to 5850 nM; in assay [2], 3800 ± 100 nM; in assay [4], 386 ± 7 nM; in assay [5] it was 1100 ± 110 nM.

`O=C(c1ccc(C(F)(F)F)cc1)C1CCN(CC(=O)N(Cc2nc3c(c(=O)[nH]2)COCC3)CC(F)F)CC1` [Example 75, N-(2,2-Difluoro-ethyl)-N-(4-oxo-3,5,7,8-tetrahydro-4H-pyrano[4,3-d]pyrimidin-2-ylmethyl)-2-[4-(4-trifluoromethyl-benzoyl)-piperidin-1-yl]-acetamide]: the half-inhibitory concentration (IC50) amounted to 6050 nM in assay [1], 73 ± 5 nM in assay [2], 17 ± 1 nM in assay [4] and 290 ± 130 nM in assay [5].

As for `COc1ccc2c(c1)CCCN2C(=O)C1CCN(CC(=O)NCc2nc3c(c(=O)[nH]2)COCC3)CC1` [Example 80, 2-(4-(6-Methoxy-1,2,3,4-tetrahydroquinoline-1-carbonyl)piperidin-1-yl)-N-((4-oxo-4,5,7,8-tetrahydro-3H-pyrano[4,3-d]pyrimidin-2-yl)methyl)acetamide], the IC50 was more than 19000 nM in assay [2], 31200 nM in assay [4] and 6400 ± 1100 nM in assay [5].

`O=C(CN1CCC(C(=O)N2CCc3c(Cl)cccc3C2)CC1)NCc1nc2c(c(=O)[nH]1)COCC2` [Example 81, 2-(4-(5-Chloro-1,2,3,4-tetrahydroisoquinoline-2-carbonyl)piperidin-1-yl)-N-((4-oxo-4,5,7,8-tetrahydro-3H-pyrano[4,3-d]pyrimidin-2-yl)methyl)acetamide]: the IC50 in assay [2] is 761 ± 18 nM; in assay [4] it was 244 ± 24 nM; in assay [5] it was more than 10000 nM.

The values above are taken from patent US9181266B2, “2-piperidin-1-yl-acetamide compounds for use as tankyrase inhibitors” (NOVARTIS AG, priority 2011, dated 2015).
